Reference: US8247211B2, “Glycopeptide antibiotics” (American Cyanamid Company, priority 2001, dated 2012)

Legend:
Test in all cases: In vitro antibacterial evaluation: minimum inhibitory concentration (MIC), broth dilution method
Assay type in all cases: cell-based
Enterococcus sp. = test system: Enterococcus sp.
Summary of the method: (§1)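 NCCLS M7-A2 broth dilution with Mueller-Hinton II, testing 64-0.06 μg/mL antibiotic against 5×10^5 CFU/mL inocula. Test strains include recent methicillin-, penicillin- or vancomycin-resistant clinical isolates. MIC is the lowest concentration preventing growth.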

Staphylococcus sp. = conditions: broth dilution, 18 hours at 35° C.
Summary of the method: as §1

Streptococcus sp. = test system: Streptococcus sp.
Summary of the method: as §1

Escherichia coli = test system: Escherichia coli
Summary of the method: as §1

[1] = broth dilution, inoculum 5×10^5 CFU/mL, 18 hours at 35° C.

CC(c1ccccc1)C1NC(=O)CNC(=O)C(CO)NC(=O)C(C(O)C2CNC(=N)N2C2OC(CO)C(O)C(O)C2O)NC(=O)C(C(O)C2CNC(=N)N2)NC(=O)C(Cc2ccc(OC3OC(CO)C(OC4OC5COC(c6ccc(-c7ccc(Cl)cc7)cc6)OC5C(O)C4O)C(O)C3O)cc2)NC1=O (stereo not drawn) [Example 178]
16 µg/mL: MIC Enterococcus faecalis (GC 3059) (Enterococcus sp.; [1]) | MIC Enterococcus faecalis (GC 3059) (Enterococcus sp.; strain GC 3059) | MIC Staphylococcus aureus (ATCC 29213) (Staphylococcus sp.; 5×10^5 CFU/mL) | MIC Staphylococcus aureus (ATCC 29213) (Staphylococcus sp.; strain ATCC 29213) | MIC Escherichi coli (GC 4560) (Escherichia coli; strain GC 4560)
4 µg/mL: MIC Enterococcus avium (GC 4558) (Enterococcus sp.; [1]) | MIC Enterococcus faecalis (ATCC 29212) (Enterococcus sp.; [1]) | MIC Enterococcus faecalis (GC 4552) (Enterococcus sp.; [1]) | MIC Enterococcus faecium (GC 2243) (Enterococcus sp.; [1]) | MIC Enterococcus faecium (GC 4556) (Enterococcus sp.; [1]) | MIC Enterococcus faecalis (ATCC 29212) (Enterococcus sp.; strain ATCC 29212) | MIC Enterococcus faecium (GC 2243) (Enterococcus sp.; strain GC 2243) | MIC Enterococcus faecalis (GC 4552) (Enterococcus sp.; strain GC 4552) | MIC Enterococcus faecium (GC 4556) (Enterococcus sp.; strain GC 4556) | MIC Enterococcus avium (GC 4558) (Enterococcus sp.; strain GC 4558) | MIC Coagulase Negative Staphylococcus (GC 4551) (Staphylococcus sp.; 5×10^5 CFU/mL) | MIC Staphylococcus aureus (GC 1131) (Staphylococcus sp.; 5×10^5 CFU/mL) | MIC Staphylococcus aureus (GC 3053) (Staphylococcus sp.; 5×10^5 CFU/mL) | MIC Staphylococcus aureus (GC 4545) (Staphylococcus sp.; 5×10^5 CFU/mL) | MIC Staphylococcus aureus-SMITH (GC 4543) (Staphylococcus sp.; 5×10^5 CFU/mL) | MIC Staphylococcus aureus (GC 1131) (Staphylococcus sp.; strain GC 1131) | MIC Staphylococcus aureus (GC 3053) (Staphylococcus sp.; strain GC 3053) | MIC Staphylococcus aureus (GC 4545) (Staphylococcus sp.; strain GC 4545)
0.12 µg/mL: MIC Streptococcus pyogenes (GC 4563) (Streptococcus sp.; [1]) | MIC Streptococcus pyogenes (GC 4563) (Streptococcus sp.; strain GC 4563)
>64 µg/mL: MIC Escherichia coli (ATCC 25922) (Escherichia coli; strain ATCC 25922) | MIC Escherichia coli (GC 4559) (Escherichia coli; strain GC 4559)
1 µg/mL: MIC Enterococcus faecalis (GC 2691) (Enterococcus sp.; [1]) | MIC Enterococcus faecalis (GC 2691) (Enterococcus sp.; strain GC 2691)
32 µg/mL: MIC Coagulase Negative Staphylococcus (GC 4547) (Staphylococcus sp.; 5×10^5 CFU/mL)
<0.06 µg/mL: MIC Streptococcus agalactiae (GC 4564) (Streptococcus sp.; [1]) | MIC Streptococcus pneumoniae (ATCC 6301) (Streptococcus sp.; [1]) | MIC Streptococcus pneumoniae (GC 1894) (Streptococcus sp.; [1]) | MIC Streptococcus pneumoniae (GC 4565) (Streptococcus sp.; [1]) | MIC Streptococcus pneumoniae (ATCC 6301) (Streptococcus sp.; strain ATCC 6301) | MIC Streptococcus pneumoniae (GC 1894) (Streptococcus sp.; strain GC 1894) | MIC Streptococcus agalactiae (GC 4564) (Streptococcus sp.; strain GC 4564) | MIC Streptococcus pneumoniae (GC 4565) (Streptococcus sp.; strain GC 4565)
8 µg/mL: MIC Enterococcus faecium (GC 4557) (Enterococcus sp.; [1]) | MIC Enterococcus faecium (GC 4557) (Enterococcus sp.; strain GC 4557) | MIC Staphylococcus aureus (GC 3051) (Staphylococcus sp.; 5×10^5 CFU/mL) | MIC Staphylococcus aureus (GC 4541) (Staphylococcus sp.; 5×10^5 CFU/mL) | MIC Staphylococcus aureus (GC 4542) (Staphylococcus sp.; 5×10^5 CFU/mL) | MIC Staphylococcus aureus (GC 4544) (Staphylococcus sp.; 5×10^5 CFU/mL) | MIC Staphylococcus haemolyticus (GC 4546) (Staphylococcus sp.; 5×10^5 CFU/mL) | MIC Staphylococcus aureus (GC 3051) (Staphylococcus sp.; strain GC 3051) | MIC Staphylococcus aureus (GC 4541) (Staphylococcus sp.; strain GC 4541) | MIC Staphylococcus aureus (GC 4542) (Staphylococcus sp.; strain GC 4542) | MIC Staphylococcus aureus (GC 4544) (Staphylococcus sp.; strain GC 4544)
2 µg/mL: MIC Enterococcus faecalis (GC 2242) (Enterococcus sp.; [1]) | MIC Enterococcus faecalis (GC 4553) (Enterococcus sp.; [1]) | MIC Enterococcus faecalis (GC 4554) (Enterococcus sp.; [1]) | MIC Enterococcus faecalis (GC 2242) (Enterococcus sp.; strain GC 2242) | MIC Enterococcus faecalis (GC 4553) (Enterococcus sp.; strain GC 4553) | MIC Enterococcus faecalis (GC 4554) (Enterococcus sp.; strain GC 4554) | MIC Coagulase Negative Staphylococcus (GC 4549) (Staphylococcus sp.; 5×10^5 CFU/mL) | MIC Coagulase Negative Staphylococcus (GC 6257) (Staphylococcus sp.; 5×10^5 CFU/mL)
0.5 µg/mL: MIC Enterococcus faecalis (GC 6189) (Enterococcus sp.; [1]) | MIC Enterococcus faecalis (GC 6189) (Enterococcus sp.; strain GC 6189) | MIC Coagulase Negative Staphylococcus (GC 4548) (Staphylococcus sp.; 5×10^5 CFU/mL)
